In patent US9233067B2, “Silk particles for controlled and sustained delivery of compounds” (Amsilk GmbH, priority 2009, dated 2016):
“Also recorded” adds a separate entry of the source. Where a name gives a salt, the structure may show the parent alone.

Legend:
[1] = pH of 7.0; cited from earlier work
Zeta potential analysis = assay type: physicochemical; conditions: lysozyme loading up to 30%; pH 7.0/30 mM
Protocol: In order to elucidate and characterize the loading mechanism of eADF4(C16) particles with model drugs, zeta potential measurements were conducted as a function of amount of model drug added. The zeta potential was determined using a Nanoseries Malvern Zetasizer (Malvern, Worcestershire, UK). Automatic titration was conducted with a Malvern Multipurpose Titrator MPT-2. Experiments were performed in distilled water (pH 7) at 25° C. Each measurement was performed in triplicate.

[2] = Particle size of lysozyme loaded C16 spider silk particles (dynamic light scattering); assay type: physicochemical; conditions: particles loaded with approximately 10% [w/w] lysozyme
Protocol: The loading procedure as applied in example 6 was modulated and implemented as follows: A stock dispersion of spider silk particles was centrifuged and redispersed in the desired buffer media before loading. A second stock solution comprising lysozyme was prepared by dissolving lyophilized lysozyme in an identical buffer solution. […] After 30 minutes of incubation at room temperature under gentle agitation, 20 μl of the resulting particle suspension were used for dynamic light scattering measurements. Simultaneously, samples were centrifuged and the supernatant was analyzed for residual protein content using the Micro BCA Protein Assay Kit (Thermo Scientific). Encapsulation efficiencies and loading were determined according to example 6 by using equation (1) and (2), respectively.

[3] = Calculated apparent distribution coefficient (log D); conditions: pH 7; calculated from log P and pKa
Text: Further, the distribution between a hydrophobic and a hydrophilic phase of two different species of a specific drug, i.e. the native and the protonated form, can be described by its apparent distribution coefficient (log D), which can be calculated with equations (3) and (4) respectively. for acids: log D=log P−log(1+10^pH-pKa) (3) for bases: log D=log P−log(1+10^pKa-pH) (4)

[4] = cited from earlier work; for log P: octanol/water, individual unprotonated forms; for Dissociation constant of BH^+(pKa): protonated base
[5] = Properties of small molecular weight model drugs (Table 1); assay type: physicochemical; conditions: for Predominant charge at pH7: pH 7, aqueous media
Protocol: All drugs were dissolved in water at a concentration of 0.21 μmol/ml. Drug substances and their featured properties are depicted in Table 1. The main selection criteria were solubility in aqueous media (expressed by the octanol/water partition coefficient (log P)), the acidic dissociation constant (pKa for protonated bases (BH+) or for acids (HA)) and the resulting net-charge in aqueous media (predominant or permanent charge).

[6] = In vitro release from drug loaded eADF4(C16) particles; assay type: physicochemical; conditions: power law fit
Protocol: Drug loaded eADF4(C16) particles were washed with distilled water and suspended in 1 ml PBS (pH 7.4) before incubation at 37° C. with constant shaking. Each vial contained 2 mg of drug loaded particles containing […] spider silk protein. The solvent was periodically removed from each sample and replaced with fresh PBS (pH 7.4). The drug content in the medium was then analyzed using UV-Vis-spectrometry. The percentage of cumulative model drug release (% w/w) was investigated as a function of incubation time. Each experiment was performed in triplicate. To study the effect of different pH values on the release behaviour of drug loaded eADF4(C16) particles, 1 mg drug loaded silk particles were incubated in 1.0 ml PBS at 5 different pH values (pH 2, 4, 6, 7.4 and 8.8) for 5 days. The solvent was withdrawn daily and the particles were redispersed in fresh media. Supernatants of drawn samples were analyzed for drug content determination with UV-Vis-spectrometry.
[formula] where Mt/M∞ is the fractional amount of the drug released at time t, k is a characteristic constant of the system, and exponent n is related to the geometrical shape of the formulation and is indicative of the mechanism of drug release. The semi-empirical power law can be seen as a generalization of two independent mechanisms of drug transport, Fickian diffusion and Case II transport, reflecting the influence of polymer relaxation on molecules' movement in the matrix. For spherical systems the limiting value of n, when pure Fickian diffusion or pure Case II transport is operating, were determined to be equal to 0.43 and 0.85, respectively. When n is between 0.43 and 0.85, a superposition of both transport processes occurs which is known as anomalous transport. In order to obtain a linear fit for the drug release data, equation (5) was modified leading to equation (6),
[formula] where n can be calculated from the slope of the log-log plot of release Mt/M∞ versus time t by linear fitting (FIG. 4d). Therefrom, three time intervals with different dominating release mechanisms could be identified excluding the initial burst region (<24 h). To distinguish between different time intervals, the criterion that the coefficient r2 had to be above 0.99 for the individual linear fits was employed. For validation of the determined release parameters, the experimental release data were compared with theoretical data obtained by the semi-empirical power law employing the determined values for k and n. A very good agreement from post-initial burst stage (>24 hours) up to 100% release was obtained (FIG. 4 a). Since only release data after 24 hours were considered for calculation of release parameters (k and n), the initial burst is underestimated by theoretical data (FIG. 4 b).

| Compound | log D [3] | log P [4] | Dissociation constant of BH^+(pKa) [4] | Permanently charged [5] | Predominant charge at pH7 [5] | further results |
| --- | --- | --- | --- | --- | --- | --- |
| Lysozyme: protein compound with an isoelectric point of 11.35 and a molecular weight of 14.3 kDa |  |  |  |  |  | net charge [1]: positive; change in the zeta-potential of particles (Zeta potential analysis): did not show a significant change; particle size compared to unloaded spider silk particles [2]: no increase in size; also recorded: did not differ |
| CCN(CC)CCOC(=O)c1ccc(N)cc1 [Procaine*HCl, Procaine] | 0.396 | 2.40 | 8.05 | no | positive |  |
| CN[C@@H](C)[C@H](O)c1ccccc1 [Ephedrine*HCl, Ephedrine] | −1.321 | 1.30 |  | no | positive |  |
| COc1ccc(Cc2nccc3cc(OC)c(OC)cc23)cc1OC [Papaverine*HCl, Papaverine] | 2.395 | 3.50 | 8.07 | no | positive |  |
| Methyl violet |  | 3.20 |  | yes | positive | k (characteristic constant) ([6]; time 0-13 d): 1.17; n (release exponent) ([6]; time 0-13 d): 0.692; k (characteristic constant) ([6]; time 14-20 d): 1.92; n (release exponent) ([6]; time 14-20 d): 0.6079; n (release exponent) ([6]; time 14-20 d, listed as methyl violet): 0.61; k (characteristic constant) ([6]; time >20 d): 9.20; n (release exponent) ([6]; time >20 d): 0.3537 |
| O=S1(=O)OC(c2ccc(O)cc2)(c2ccc(O)cc2)c2ccccc21 [Phenol red] |  | 3.00 |  |  |  |  |
| CCOc1ccc2nc3cc(N)ccc3c(N)c2c1 [Ethacridine lactate] | 2.899 | 2.50 | 11.00 | no | positive | k (characteristic constant) ([6]; time 0-13 d): 1.25; n (release exponent) ([6]; time 0-13 d): 00.6754; n (release exponent) ([6]; time 0-13 d, listed as ethacridine lactate): 0.6754; k (characteristic constant) ([6]; time 14-20 d): 3.18; n (release exponent) ([6]; time 14-20 d): 0.5083; n (release exponent) ([6]; time 14-20 d, listed as ethacridine lactate): 0.51; k (characteristic constant) ([6]; time >20 d): 14.4; n (release exponent) ([6]; time >20 d): 0.2641 |
| CC(C)NCC(O)COc1cccc2ccccc12 (stereo not drawn) [Propranolol*HCl, Propranolol] |  |  |  | no | positive |  |
| CCCCNc1ccc(C(=O)OCCN(C)C)cc1 [Tetracaine*HCl, Tetracaine] | 2.773 | 4.00 |  | no | positive |  |
| Nerve growth factor: protein with an isoelectric point of 9.5 and a molecular weight of 13 kDa |  |  |  |  |  | net charge [1]: positively charged |
